From US5534533A, “Carboxylate derivatives exhibiting phospholipase A2 inhibitory activity” (Shionogi & Co., Ltd., priority 1993, dated 1996)

Legend:
[1] = biological target: T1, Human secretory PLA2 (Homo sapiens, UniProt P14555); assay: Secretory PLA2 inhibitory activity (diheptanoyl thio PC substrate, absorbance at 405 nm); format: biochemical; conditions: diheptanoyl thio PC 1 mM, Triton X100 0.3 mM, pH 7.3, CaCl2 10 mM, 30 minutes, read-out: s-PLA2 Inhibition IC50
T1 sequence (P14555 21-144): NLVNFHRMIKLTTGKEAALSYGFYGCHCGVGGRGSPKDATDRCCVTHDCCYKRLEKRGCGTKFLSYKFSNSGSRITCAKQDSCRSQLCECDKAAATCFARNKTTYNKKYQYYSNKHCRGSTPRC
Method: Secretory PLA2 activity was assayed according to the method described in Penynolds L. J., Hughes L. L., Dennis E. A. et al. Anal. Biochem. 201,190-197 (1992).
Diheptanoyl thiophosphatidylcholine which was prepared according to the procedure described in the literature was used as a substrate. Human secretory PLA2 was used as an enzyme. The diheptanoyl thio PC (1 mM) was reacted with the human secretory PLA2 in the presence of Triton X100 (0.3 mM) and 5,5'-dithiobis-(2-nitrobenzoic acid) (125 μM) in Tris buffer (25 mM, pH 7.3), CaCl2 (10 mM), KCI (100 mM), bovine serum albumin (1.0 mg/ml), and then the change in absorbance at 405 nm at the time of 30 minutes after the reaction was assayed.
Inhibitory activity (%) was estimated by the formula: [(the change in absorbance with the inhibitor and PLA2 ·the change in absorbance with the inhibitor and without PLA2)/(the change in absorbance without the inhibitor and with PLA2 ·the change in absorbance without the inhibitor and PLA2)]×100.
IC50 value (μM) was calculated from graph showing inhibitory values on the vertical axis and log of concentrations of the inhibitor on the horizontal axis.

[2] = biological target: T2, intracellular PLA2 (cytosolic PLA2, cPLA2) (Homo sapiens, UniProt P47712); assay: Intracellular PLA2 (cPLA2) inhibitory activity (14C-arachidonyl phosphatidylcholine substrate); format: biochemical; conditions: 2 μM radiolabelled phosphatidylcholine, 1 μM dioleoylglycerol, 1 mM CaCl2, pH 7.4; read-out: c-PLA2 Inhibition IC50
T2 sequence (P47712 1-749): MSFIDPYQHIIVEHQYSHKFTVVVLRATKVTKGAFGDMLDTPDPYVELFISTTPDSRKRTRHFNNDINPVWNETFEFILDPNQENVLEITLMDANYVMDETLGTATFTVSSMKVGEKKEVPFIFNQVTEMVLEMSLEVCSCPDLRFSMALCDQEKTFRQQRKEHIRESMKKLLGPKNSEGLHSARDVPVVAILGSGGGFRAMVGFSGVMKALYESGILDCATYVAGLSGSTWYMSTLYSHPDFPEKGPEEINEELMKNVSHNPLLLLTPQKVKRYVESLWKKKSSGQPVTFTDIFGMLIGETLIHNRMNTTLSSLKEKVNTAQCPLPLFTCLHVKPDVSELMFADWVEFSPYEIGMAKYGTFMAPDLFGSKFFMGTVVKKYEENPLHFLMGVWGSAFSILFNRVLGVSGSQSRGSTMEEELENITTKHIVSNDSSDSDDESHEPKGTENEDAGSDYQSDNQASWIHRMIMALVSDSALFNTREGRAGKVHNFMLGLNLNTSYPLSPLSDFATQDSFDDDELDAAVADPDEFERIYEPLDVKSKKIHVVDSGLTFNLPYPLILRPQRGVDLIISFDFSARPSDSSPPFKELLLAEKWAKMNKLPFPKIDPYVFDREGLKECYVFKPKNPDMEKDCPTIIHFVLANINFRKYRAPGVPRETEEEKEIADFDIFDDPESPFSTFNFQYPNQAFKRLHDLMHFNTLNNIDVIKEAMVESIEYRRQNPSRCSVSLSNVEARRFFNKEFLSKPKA
Method: cPLA2 activity was assayed according to the method described in R. M. Kramer, E. F. Roberts, J. Manetta and J. E. Putnam, J. Biol. Chem., 268 (8), 5268-5272 (1991). Briefly, intracellular PLA2 activity was assayed using supersonic treated […] which contain 1-palmitoyl-2-[^14 C]arachidonyl-sn-glycero-3-phosphocholine and sn-1, 2-dioleoylglycerol at a molar ratio of 2:1. This test mixture contained 1 mM CaCl2, 2 mM dithiothreitol, 150 mM NaCl, 50 mM Hepes, pH 7.4 and 0.1 mg/ml BSA. A substrate is a 2 μM radioisotope labelled phosphatidylcholine ribosome containing 1 μM dioleoylglycerol. IC50 value is calculating in the same manner as in calculating it for secretory PLA2 inhibitory activity.

## COc1c(C)c(OC(=O)c2c(C)c(C)c(OCCC3=CCC4CC3C4(C)C)c(C)c2OC)c(C)c(C)c1C(=O)O (single isomer, unassigned) [Example 49, 4-{4-[2-(6,6-Dimetheylbicyclo[3.1.1]hept-2-en-2-yl)ethoxy]-2-methoxy-3,5,6-trimethylbenzoyloxy}-2-methoxy-3,5,6-trimethylbenzoic Acid]
[1]
  IC50: 44 µM
[2]
  IC50: 4.1 µM

## COc1c(C)c(OC(=O)c2c(C)c(C)c(OCCCCCCOc3ccc(C(F)(F)F)cc3)c(C)c2OC)c(C)c(C)c1C(=O)O [Example 3, 4-[4-[6-(4-Trifluoromethylphenoxy)hexyloxy]-2-methoxy-3,5,6-trimethylphenylcarboxy]-2-methoxy-3,5,6-trimethylbenzoic acid]
[1]
  IC50: 32 µM
[2]
  IC50: 3 µM

## COc1c(C)c(OC(=O)c2c(C)c(C)c(OCCCCCCOc3ccc(F)cc3)c(C)c2OC)c(C)c(C)c1C(=O)O [Example 4, 4-[4-[6-(4-Fluorophenoxy)hexyloxy]-2-methoxy-3,5,6-trimethylphenylcarboxy]-2-methoxy-3,5,6-trimethylbenzoic acid]
[1]
  IC50: 27 µM
[2]
  IC50: 7.4 µM

## COc1c(C)c(OC(=O)c2c(C)c(C)c(OCCCCCCSc3ccc(F)cc3)c(C)c2OC)c(C)c(C)c1C(=O)O [Example 5, 4-[4-[6-(4-Fluorophenylthio)hexyloxy]-2-methoxy-3,5,6-trimethylphenylcarboxy]-2-methoxy-3,5,6-trimethylbenzoic acid]
[1]
  IC50: 47 µM
[2]
  IC50: 4 µM

## COc1c(C)c(OC(=O)c2c(C)c(C)c(OCCCCCCS(=O)(=O)c3ccc(F)cc3)c(C)c2OC)c(C)c(C)c1C(=O)O [Example 6, 4-[4-[6-(4-Fluorophenylsulfonyl)hexyloxy]-2-methoxy-3,5,6-trimethylphenylcarboxy]-2-methoxy-3,5,6-trimethylbenzoic acid]
[1]
  IC50: 9 µM
[2]
  IC50: 12 µM

## COc1c(C(C)(C)C)cc(SCCCOc2c(C)c(C)c(C(=O)Oc3c(C)c(C)c(C(=O)O)c(OC)c3C)c(OC)c2C)cc1C(C)(C)C [Example 7, 4-[4-[3-(3,5-Di-tert-butyl-4-methoxyphenylthio)propyloxy]-2-methoxy-3,5,6-trimethylphenylcarboxy]-2-methoxy-3,5,6-trimethylbenzoic acid]
[1]
  IC50: > 50 µM
[2]
  IC50: 0.54 µM

## COc1c(C)c(OC(=O)c2c(C)c(C)c(OCc3ccc(F)cc3)c(C)c2OC)c(C)c(C)c1C(=O)O [Example 8, 4-[4-(4-Fluorobenzyloxy)-2-methoxy-3,5,6-trimethylphenylcarboxy]-2-methoxy-3,5,6-trimethylbenzoic acid]
[1]
  IC50: 22 µM
[2]
  IC50: 31 µM

## COc1c(C)c(OC(=O)c2c(C)c(C)c(OCc3ccccc3)c(C)c2OC)c(C)c(C)c1C(=O)O [Example 9, 4-[4-Benzyloxy-2-methoxy-3,5,6-trimethylphenylcarboxy)2-methoxy-3,5,6-trimethylbenzoic acid]
[1]
  IC50: 45 µM
[2]
  IC50: 33 µM

## COc1c(C)c(OC(=O)c2c(C)c(C)c(OCCCSc3ccc(F)cc3)c(C)c2OC)c(C)c(C)c1C(=O)O [Example 10, 4-[4-[3-(4-Fluorophenylthio)propyloxy]-2-methoxy-3,5,6-trimethylphenylcarboxy]-2-methoxy-3,5,6-trimethylbenzoic acid]
[1]
  IC50: 13 µM
[2]
  IC50: 13 µM

## COc1c(C)c(OC(=O)c2c(C)c(C)c(OCCCCCCOc3ccc(Cl)cc3)c(C)c2OC)c(C)c(C)c1C(=O)O [Example 11, 4-[4-[6-(4-Chlorophenoxy)hexyloxy]-2-methoxy-3,5,6-trimethylphenylcarboxy]-2-methoxy-3,5,6-trimethylbenzoic acid]
[1]
  IC50: 14 µM
[2]
  IC50: 4.8 µM

## COc1c(C(C)(C)C)cc(SCCCCCCOc2c(C)c(C)c(C(=O)Oc3c(C)c(C)c(C(=O)O)c(OC)c3C)c(OC)c2C)cc1C(C)(C)C [Example 12, 4-[4-[6-(3,5-Di-tert-butyl-4-methoxyphenylthio)hexyloxy]-2-methoxy-3,5,6-trimethylphenylcarboxy]-2-methoxy-3,5,6-trimethylbenzoic acid]
[1]
  IC50: > 50 µM
[2]
  IC50: 2 µM
